Assay [1] deals with TRKB autophosphorylation (TRKB:pY). The assay can be described thus: TRKB:pY ELISA in cultured cortical cells. The settings on record: for effect on TRKB phosphorylation (pTRKB) by BDNF: BDNF 10 ng/mL, primary cortical neurons. Format: cell-based, rat. As to the method: (§1) The TRKB:pY (phosphorylated TRKB), TRKB:PLC-γ1, PLC-γ1:pTRKB.Y816 interactions and were determined by ELISA, based on the general method described in literature ([Antila et al., 2014]; [Fred et al., 2019]), with minor adjustments. Briefly, white 96-well plates (OptiPlate 96F-HB, Perkin Elmer) were coated with capturing anti-TRKB or PLC-γ1 antibody (1:1000) in carbonate buffer (pH = 9.8) overnight (ON) at 4°C. Following a blocking step with 2%BSA in TBS-T (2 h, RT), samples were incubated ON at 4°C. The incubation with antibody against pTRKB.Y816, PLC-γ1 or pY (1:2000, ON, 4°C) was followed by HRP-conjugated anti-Rb IgG (1:5000, 2h, RT) or HRP-conjugated streptavidin (1:10000, 2h, RT). Finally, the chemiluminescent signal generated by the reaction with ECL was analyzed in a plate reader (Varioskan Flash, Thermo Scientific).
(In an ELISA, binding on a coated surface is turned into a signal by an enzyme label.)

A further assay deals with E18 cortical cells. The assay can be described thus: Cell viability (CellTiterGlo) of cortical cells. Format: cell-based, rat. The settings on record: pravastatin 2 μM/5 days; CHOL 20 μM or BDNF 10 ng/ml, 5 days. How it is done:
The cell viability assay was performed using CellTiterGlo (#G7571; Promega) according to manufacturer’s instructions. Briefly, equal amounts of medium and the mixture of regents A and B were added to the E18 cortical cells (DIV8) cultivated in clear bottom 96-well plates and incubated for 40min. The luminescence was analyzed in a plate reader.
In general terms: Cellular ATP, detected with luciferase, serves as a proxy for viable cell number.

A further assay has as its target TRKB (Mus musculus, UniProt P15209). The assay can be described thus: Cell-free ligand binding assay on immobilised TRKB from HEK293T lysates. The following applies: for displacement of biotinylated FLX from TRKB: biotinylated FLX 1 μM. Set-up: wild-type GFP-tagged full length TRKB or the GFP-tagged Y433F TRKB mutant; host or cells: HEK293T.
The subject of another assay is TRKB:PLC-γ1 interaction. Briefly: TRKB:PLC-γ1 interaction ELISA in cortical cells. Format: cell-based, rat. The following applies: rat cortical cells. The method in brief: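 Sandwich ELISA on cultured cortical cell lysates: plates coated with anti-TRKB or anti-PLC-γ1 capture antibody, samples bound overnight at 4°C, then detected with anti-pY or anti-PLC-γ1 antibody plus HRP-conjugated secondary or streptavidin. Read-out is ECL chemiluminescence.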

The subject of another assay is surface TRKB. The assay can be described thus: Surface TRKB ELISA in primary cortical neurons. The following applies: primary cortical neurons. In kind it is cell-based, rat. How it is done: The surface levels of TRKB were also determined by ELISA ([Zheng et al., 2008]). Briefly, the MG87.TRKB cells or primary cortical cells from rat or mouse embryos, cultivated in clear bottom 96-well plates (ViewPlate 96, Perkin Elmer), were washed with ice-cold PBS and fixed with 100μl of 4% PFA per well. After washing with PBS and blocking with PBS containing 5% nonfat dry milk and 5% BSA, the samples were incubated with primary anti-TRKB antibody (R&D Systems, #AF1494, 1:1000 in blocking buffer) or anti-GluR1 subunit of AMPA receptors (CST, #8850, 1:2000 in blocking buffer) ON at 4°C. Following washing, the samples were incubated with HRP-conjugated anti-goat or anti-rabbit IgG (1:5000 in blocking buffer) for 1h at RT. The cells were washed 4x with 200μl of PBS for 10 min each. Finally, the chemiluminescent signal generated by reaction with ECL was analyzed in a plate reader.

Another assay has as its system pTRKB.Y816. Format: cell-based, rat. The settings on record: 10 μM/15 min. As to the method: as §1
The levels of total and phosphorylated TRKB at Y515 or Y816 in MG87.TRKB cells, challenged with BDNF, as well as the levels of PLCg1 and pTRKB.Y816 were measured by western-blotting ([Rantamäki et al., 2007]).

A further assay concerns GFP-TRKB. The assay can be described thus: FRAP of GFP-TRKB in dendritic spines of hippocampal neurons. In kind it is cell-based, rat. The following applies: BDNF 20 ng/mL, FLX 1 μM, KET 10 μM; 15 min pretreatment.
Assay [2] deals with mice. The assay can be described thus: Forced swimming test (FST). The settings on record: FLX 15 mg/kg for 21 days, KET 10 mg/kg i.p. 2 h before. Format: in vivo, mouse. As to the method: Forced swimming test: animals (adult male and female mice, 18-22 weeks old) were placed in 5l glass beaker cylinders (19cm diameter, with 20cm water column) for 6min. The immobility was assessed in the last 4min of the session ([Diniz et al., 2018]). The water was changed between each test. After swimming, animals were towel-dried and kept in a warmed cage before returning to their home cages. Test was videotaped and analyzed by a trained observer blind to treatment.

Assay [3] deals with mice. The assay can be described thus: Contextual fear conditioning and extinction. In kind it is in vivo, mouse. How it is done:
Contextual fear conditioning: this test was modified from previous studies ([Karpova et al., 2011]). Briefly, adult male and female mice (18-22 weeks old) were conditioned to 5 scrambled foot shocks (0.6mA/2 s) during the 8 min session (arena: 23 × 23 × 35cm) under constant illumination (100 lux). During the extinction trials, the animals were exposed to the same context where the shocks were delivered and the time spent in freezing during the 8 min session was automatically determined by the software (TSE Systems, Germany).

A further assay addresses T1, TRKB.Y433F (Mus musculus, UniProt P15209, Y433F).
T1 construct: wild-type GFP-tagged full length TRKB or the GFP-tagged Y433F TRKB mutant; host or cells: HEK293T
The assay can be described thus: Cell-free ligand binding assay, TRKB.Y433F mutant. The following applies: TRKB.Y433F; read-out: binding affinity of BDNF. How it is done:
The cell-free assays (binding assays) were performed in white 96-well plates, based on the protocol used for western-blotting or ELISA ([Baeza-Raja et al., 2016]; [Das et al., 2015]). The plates were precoated with anti-GFP, anti-FLAG, anti-TRK or anti-TRKB antibody (1:1000) in carbonate buffer (pH 9.8), ON at 4°C. Following blocking with 3% BSA in PBS buffer (2 h at RT), 120 ug of total protein from each sample (of lysates from HEK293T cells transfected to overexpress GFP-TRKB.wt or GFP-TRKB.Y433F) were added and incubated overnight at 4°C under agitation. […] The luminescence was determined via HRP-conjugated streptavidin (1:10000, 1h, RT) activity reaction with ECL by a plate reader. The luminescence signal from blank wells (containing all the reagents but the sample lystates, substituted by the blocking buffer) was used as background. The specific signal was then calculated by subtracting the values of blank wells from the values of the samples with matched concentration of the biotinylated ligand. For Figure 2E, the precipitated TRKB.wt or Y433F was incubated with tritiated imipramine (0-30μM) and the radioactive emission of the ligand was determined by scintillation (OptiPhase Supermix cocktail: #1200-439; MicroBeta2, Perkin-Elmer). The scintillation signal from blank wells was used as background, and the specific signal was then calculated by subtracting the values of blank wells from the values of the samples with matched concentration of the radioactive ligand.

The mark [4] stands for this setting: wild-type mice, FLX 15 mg/kg for 2 weeks, KET 10 mg/kg i.p. after conditioning and 2 h before each extinction trial.

The record followed here is article PMC7938888, “Antidepressant drugs act by directly binding to TRKB neurotrophin receptors” (Cell, 2021).

By Ki is commonly meant the equilibrium dissociation constant of an inhibitor or competing ligand from its target.

Chain of TRKB (P15209 32-821): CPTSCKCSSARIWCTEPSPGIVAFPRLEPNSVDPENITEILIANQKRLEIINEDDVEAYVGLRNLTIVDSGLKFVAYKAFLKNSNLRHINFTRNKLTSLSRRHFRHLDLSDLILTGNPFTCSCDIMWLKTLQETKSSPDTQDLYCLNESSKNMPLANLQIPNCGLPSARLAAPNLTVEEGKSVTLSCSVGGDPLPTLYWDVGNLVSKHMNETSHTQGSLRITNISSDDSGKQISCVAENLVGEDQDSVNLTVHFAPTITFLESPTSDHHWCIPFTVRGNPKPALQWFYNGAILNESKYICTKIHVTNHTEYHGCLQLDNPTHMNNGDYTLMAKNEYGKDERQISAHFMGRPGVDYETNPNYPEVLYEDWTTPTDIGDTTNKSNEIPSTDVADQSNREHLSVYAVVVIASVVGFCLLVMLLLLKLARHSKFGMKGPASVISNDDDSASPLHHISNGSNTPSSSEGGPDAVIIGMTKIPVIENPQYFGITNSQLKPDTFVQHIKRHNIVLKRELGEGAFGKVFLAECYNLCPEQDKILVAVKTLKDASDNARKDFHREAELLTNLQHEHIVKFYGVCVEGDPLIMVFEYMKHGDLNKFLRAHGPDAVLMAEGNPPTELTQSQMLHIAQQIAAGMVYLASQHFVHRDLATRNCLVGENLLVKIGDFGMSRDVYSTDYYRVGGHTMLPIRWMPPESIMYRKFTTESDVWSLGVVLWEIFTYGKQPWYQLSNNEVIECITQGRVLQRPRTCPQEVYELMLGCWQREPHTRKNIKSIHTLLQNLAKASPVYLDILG
T1 sequence (P15209 32-821 Y433F): as the sequence (P15209 32-821) above, with Y402F counted along it
Experimental for GFP-TRKB: For the fluorescence recovery after photobleaching (FRAP) experiments, E18 rat embryo hippocampal cells were plated onto glass coverslips coated with poly-L-lysine (Sigma-Aldrich) in 4-well cell culture plates at a density of 200.000 cells/well. The cultures were incubated at +37°C in serum-free Neurobasal medium (supplemented with 2% B27, 1% L-glutamine and 1% ampicillin) for approximately 2 weeks (DIV 14-16), renewing half of the growth media weekly. Then, they were transfected with Lipofectamine 2000 (Invitrogen) in order to overexpress GFP-tagged TRKB constructs (TRKB.WT or TRKB.Y433F). The cultures were incubated with the transfection mix (per well: 50ul neurobasal medium, 1ul Lipofectamine 2000, 1ug plasmid DNA) in serum-free media for 1.5 hours, followed by 3x medium washes and returned to the original growth medium after that. The cells were left at +37°C o/n to overexpress the constructs ([Koskinen et al., 2012]). Next day, FRAP was performed with a confocal microscope (Zeiss LSM 710, Carl Zeiss AG) adapted for live cell imaging with a chamber set at +37°C and 5%CO2 (Zeiss Temp Module system, Carl Zeiss AG). Coverslips with the cultured hippocampal neurons were carefully transferred to 35mm Petri dishes with warm HBSS medium without phenol red or serum to avoid sources of background fluorescence. After a 10 minutes adaptation period in the microscope chamber to avoid focus drift caused by temperature fluctuations of the stage and objective, dendritic shafts or spines (spine head diameter = ∼1um) were localized with a 63x/0.90 NA dipping water objective. Picture format was 512x512 pixels. The nominal speed to capture images was set to 9 (pixel dwell 3.15 μseconds, taking approximately 0.5 s to finish a scan), and the pinhole aperture was set to completely open to obtain a strong fluorescent signal ([Koskinen et al., 2012]; [Zheng et al., 2011]). Once a region of interest (ROI) was selected with a circle that contained the whole spine, it was bleached to establish the FRAP baseline. […]

Turning to `CC(C)CCC[C@@H](C)[C@H]1CC[C@H]2[C@@H]3CC=C4C[C@@H](O)CC[C@]4(C)[C@H]3CC[C@]12C` [CHOL, cholesterol], the “effect on TRKB phosphorylation (pTRKB) by BDNF” value in [1] (CHOL 20 μM) is listed as “enhanced TRKB phosphorylation”; in assay [1] (CHOL 50–100 μM), “suppressed the effects of BDNF”. Further, in the assay with E18 cortical cells, the “rescue of pravastatin-reduced neuronal survival” value is on record as “rescued”. Also, at TRKB, the “effect on interaction of biotinylated FLX and R,R-HNK with TRKB” value is on record as “increased the interaction of these compounds with TRKB”.

In the case of `CNCCC(Oc1ccc(C(F)(F)F)cc1)c1ccccc1` (stereo not shown) [FLX, fluoxetine], the “rescue of BDNF-induced pTRKB response under high CHOL” value in assay [1] (cholesterol 50 μM, drug 10 μM 15 min, BDNF 10 ng/ml 15 min) is “partially rescued”. In the assay on TRKB:PLC-γ1 interaction, the “TRKB interaction with PLC-γ1” value is given as “increased TRKB interaction with PLC-γ1”. Moreover, the “surface expression of TRKB” value with surface TRKB is reported as “increased the surface expression of TRKB”. In the assay on pTRKB.Y816, the “pTRKB at Y816” value was “enhanced pTRKB at Y816”. The “recovery of GFP-TRKB fluorescence in dendritic spines after bleaching” value (“recovery of GFP-TRKB fluorescence” below) in the assay on GFP-TRKB is reported as “promoted recovery of GFP-TRKB fluorescence in dendritic spines”. The “immobility in the FST” value in the assay with mice [2] (TRKB.Y433F mice) is “ineffective”; with mice [2] (wild-type mice) it was “significantly reduced immobility”. The “extinction of conditioned fear” value is “no increase in fear extinction” in the assay on mice [3] (TRKB.Y433F mice), “no increase in fear extinction” in the assay on mice [3] (pravastatin-FLX co-treated mice) and “promoted extinction of conditioned fear” in the assay on mice [3] (setting [4]).

In the case of `CNC1(c2ccccc2Cl)CCCCC1=O` (stereo not shown) [KET, ketamine], in the assay with TRKB:PLC-γ1 interaction, the “TRKB interaction with PLC-γ1” value is “increased TRKB interaction with PLC-γ1”. Besides, the “pTRKB at Y816” value in the assay on pTRKB.Y816 is recorded as “enhanced pTRKB at Y816”. In addition, the “recovery of GFP-TRKB fluorescence” value in the assay on GFP-TRKB is “promoted recovery of GFP-TRKB fluorescence in dendritic spines”. In addition, the “immobility in the FST” value with mice [2] (TRKB.Y433F mice) is reported as “ineffective”; with mice [2] (wild-type mice), “significantly reduced immobility”. Besides, the “extinction of conditioned fear” value with mice [3] (TRKB.Y433F mice) is on record as “no increase in fear extinction”; in the assay with mice [3] (setting [4]), “promoted extinction of conditioned fear”. Moreover, the Ki on TRKB is 12300 nM. In addition, the “displacement of biotinylated FLX from TRKB” value at TRKB is reported as “readily displaced”.

B1: BDNF: brain-derived neurotrophic factor, TRKB ligand (protein, UniProt P23560 19-247, looked up)
Neurotrophic factor BDNF …: APMKEANIRGQGGLAYPGVRTHGTLESVNGPKAGSRGLTSLADTFEHVIEELLDEDQKVRPNEENNKDADLYTSRVMLSSQVPLEPPLLFLLEEYKNYLDAANMSMRVRRHSDPARRGELSVCDSISEWVTAADKKTAVDMSGGTVTVLEKVPVSKGQLKQYFYETKCNPMGYTKEGCRGIDKRHWNSQCRTTQSYVRALTMDSKKRIGWRFIRIDTSCVCTLTIKRGR
Take B1: the Kd stood at 0.0029 nM with TRKB.Y433F and 0.0031 nM in the assay with TRKB (TRKB.wt, read-out: binding affinity of BDNF). For the same molecule, the “rescue of pravastatin-reduced neuronal survival” value in the assay on E18 cortical cells was “not by BDNF”. Further, the “recovery of GFP-TRKB fluorescence” value in the assay with GFP-TRKB is “rapid recovery of GFP-TRKB fluorescence in spines”. Besides, the “displacement of biotinylated FLX from TRKB” value with TRKB was “failed to displace”.
